According to patent publication US20240124418A1 (BioTheryX, Inc., priority 2020, published 2024):

Tests used:
[1] = test system: TNF-α; assay: Cell-based TNF-α inhibition assay (LPS-induced PBMCs, Meso Scale); conditions: PBMC, PBMCs pretreated 1 h, LPS 100 ng/mL 18-24 h, percentage of stimulated DMSO control; for inhibition at 0.1 µM: compound concentration 0.1 μM; for inhibition at 1 µM: compound concentration 1 μM
In short: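 Thawed primary PBMCs (200,000 cells/well, RPMI 1640 with 10% FBS) were pretreated with compound for 1 h, then stimulated with 100 ng/mL LPS for 18–24 h. Supernatant TNF-α was measured by Meso Scale, and activity was expressed as percent inhibition relative to the stimulated DMSO control.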

[2] = biological target: T1, PDE4B (Homo sapiens, UniProt Q07343); assay: Protein degradation assay, western blot, PDE4B in A549 cells; assay type: cell-based; conditions: 24 h treatment, 'as high as about' = upper value for the group, read-out: PDE4B degradation relative to DMSO
T1 construct: endogenous in cells; host or cells: A549
Description: (§1) Example B2. Protein Degradation Assay
(§2) A549 cells were grown in RPMI 1640 media supplemented with 10% fetal bovine serum, streptomycin, and penicillin. The cells were plated in 6-well plates at 300,000 cells/well in the growth media. After overnight incubation, the cells were treated with DMSO (control) or a compound at predetermined concentrations (e.g., 10 nM, 100 nM, 1 μM, 3 μM, or 10 μM) for 24 h at 37° C. under 5% CO2. Whole cell extracts were prepared using an immunoprecipitation (IP) lysis buffer. The cells were washed once in PBS, and the cell pellets were resuspended in the IP lysis buffer and incubated for 15 min on ice. Cells debris was removed by centrifugation and the cleared whole cell lysates were transferred to new tubes for further analysis.
(§3) For a western blot analysis, the whole cell protein extracts were separated on 4-12% SDS-polyacrylamide gels, transferred to nitrocellulose, and probed with primary antibodies. Membranes were subsequently washed and probed with IRDYE® secondary antibodies. The signals were detected using an ODYSSEY® Imaging System. The antibodies used in the assay included anti-PDE4B antibody; anti-PDE4D antibodies (top, bottom, and short isoform); β-actin mouse monoclonal antibody; IRDYE® 680RD goat anti-rabbit antibody; and IRDYE® 800CW goat anti-mouse antibody. The compounds provided herein are PDE4 protein degraders.

[3] = test system: PDE4D, in particular, PDE4D short isoform; assay: Protein degradation assay, western blot, PDE4D in A549 cells; assay type: cell-based; conditions: 24 h treatment, same conditions
Description: as §1, §2, §3

T1 sequence (Q07343 whole entry): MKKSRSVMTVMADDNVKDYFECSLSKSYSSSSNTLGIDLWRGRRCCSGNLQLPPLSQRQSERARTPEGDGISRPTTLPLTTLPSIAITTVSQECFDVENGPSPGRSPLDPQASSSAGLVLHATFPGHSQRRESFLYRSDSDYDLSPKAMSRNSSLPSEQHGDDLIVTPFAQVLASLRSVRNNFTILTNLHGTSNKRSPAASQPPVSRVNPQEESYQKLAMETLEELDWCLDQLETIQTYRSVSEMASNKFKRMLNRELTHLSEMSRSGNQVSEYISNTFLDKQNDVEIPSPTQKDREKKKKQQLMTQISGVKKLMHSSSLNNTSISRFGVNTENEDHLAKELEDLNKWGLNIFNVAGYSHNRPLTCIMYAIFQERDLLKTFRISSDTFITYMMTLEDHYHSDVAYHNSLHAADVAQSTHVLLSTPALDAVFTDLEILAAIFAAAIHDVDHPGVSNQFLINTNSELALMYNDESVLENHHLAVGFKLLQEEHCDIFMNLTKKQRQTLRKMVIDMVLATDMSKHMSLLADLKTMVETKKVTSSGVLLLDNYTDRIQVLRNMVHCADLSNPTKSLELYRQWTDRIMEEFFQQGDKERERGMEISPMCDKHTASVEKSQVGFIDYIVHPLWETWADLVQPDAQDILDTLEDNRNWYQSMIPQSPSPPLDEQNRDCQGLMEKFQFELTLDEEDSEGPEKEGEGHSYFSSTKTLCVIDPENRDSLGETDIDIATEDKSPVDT

SMILES | Dmax [2] [%] | inhibition at 0.1 µM [1] [%] | inhibition at 1 µM [1] [%] | PDE4D degradation (in words) [3]
CCOc1cc([C@@H](CS(C)(=O)=O)N2C(=O)c3cccc(NC(=O)CCCCCCCCN4CCC(C#Cc5cc6c(cc5F)C(=O)N(C5CCC(=O)NC5=O)C6)CC4)c3C2=O)ccc1OC (stereo partly drawn) [Compound A20, 9-(4-{2-[2-(2,6-Dioxopiperidin-3-yl)-6-fluoro-1-oxo-2,3-dihydro-1H-isoindol-5-yl]ethynyl}piperidin-1-yl)-N-{2-[(1S)-1-(3-ethoxy-4-methoxyphenyl)-2-methanesulfonylethyl]-1,3-dioxo-2,3-dihydro-1H-isoindol-4-yl}nonanamide] | ≤ 70 | ≥ 60 | ≥ 60 | 
CCOc1cc([C@@H](CS(C)(=O)=O)N2C(=O)c3cccc(NC(=O)CCCCCCCN4CCC(c5cc6c(cc5F)C(=O)N(C5CCC(=O)NC5=O)C6)CC4)c3C2=O)ccc1OC (stereo partly drawn) [Compound A22, 8-{4-[2-(2,6-Dioxopiperidin-3-yl)-6-fluoro-1-oxo-2,3-dihydro-1H-isoindol-5-yl]piperidin-1-yl}-N-{2-[(1S)-1-(3-ethoxy-4-methoxyphenyl)-2-methanesulfonylethyl]-1,3-dioxo-2,3-dihydro-1H-isoindol-4-yl}octanamide] | ≤ 70 | ≥ 60 | ≥ 60 | 
CCOc1cc([C@@H](CS(C)(=O)=O)N2C(=O)c3cccc(NC(=O)CC4CN(Cc5ccc(OCc6scc7c6CN(C6CCC(=O)NC6=O)C7=O)cc5)CCO4)c3C2=O)ccc1OC (stereo partly drawn) [Compound A40, 2-{4-[(4-{[5-(2,6-Dioxopiperidin-3-yl)-4-oxo-4H,5H,6H-thieno[3,4-c]pyrrol-1-yl]methoxy}phenyl)methyl]morpholin-2-yl}-N-{2-[(1S)-1-(3-ethoxy-4-methoxyphenyl)-2-methanesulfonylethyl]-1,3-dioxo-2,3-dihydro-1H-isoindol-4-yl}acetamide] | ≤ 70 | ≥ 60 | ≥ 60 | 
CCOc1cc([C@@H](CS(C)(=O)=O)N2C(=O)c3cccc(NC(=O)CCOCCOCCNCc4ccc(OCc5scc6c5CN(C5CCC(=O)NC5=O)C6=O)cc4)c3C2=O)ccc1OC (stereo partly drawn) [Compound A41, 3-[2-(2-{[(4-{[5-(2,6-Dioxopiperidin-3-yl)-4-oxo-4H,5H,6H-thieno[3,4-c]pyrrol-1-yl]methoxy}phenyl)methyl]amino}ethoxy)ethoxy]-N-{2-[(1S)-1-(3-ethoxy-4-methoxyphenyl)-2-methanesulfonylethyl]-1,3-dioxo-2,3-dihydro-1H-isoindol-4-yl}propanamide] | ≤ 70 | 40 to 60 | ≥ 60 | 
CCOc1cc([C@@H](CS(C)(=O)=O)N2C(=O)c3cccc(NC(=O)CCCc4ccc(CCNCc5ccc(OCc6scc7c6CN(C6CCC(=O)NC6=O)C7=O)cc5)cc4)c3C2=O)ccc1OC (stereo partly drawn) [Compound A42, 4-[4-(2-{[(4-{[5-(2,6-Dioxopiperidin-3-yl)-4-oxo-4H,5H,6H-thieno[3,4-c]pyrrol-1-yl]methoxy}phenyl)methyl]amino}ethyl)phenyl]-N-{2-[(1S)-1-(3-ethoxy-4-methoxyphenyl)-2-methanesulfonylethyl]-1,3-dioxo-2,3-dihydro-1H-isoindol-4-yl}butanamide] | ≤ 70 | ≥ 60 | ≥ 60 | 
CCOc1cc([C@@H](CS(C)(=O)=O)N2C(=O)c3cccc(NC(=O)CCCCCCCCCCNCc4ccc(OCc5scc6c5CN(C5CCC(=O)NC5=O)C6=O)cc4)c3C2=O)ccc1OC (stereo partly drawn) [Compound A43, 11-{[(4-{[5-(2,6-Dioxopiperidin-3-yl)-4-oxo-4H,5H,6H-thieno[3,4-c]pyrrol-1-yl]methoxy}phenyl)methyl]amino}-N-{2-[(1S)-1-(3-ethoxy-4-methoxyphenyl)-2-methanesulfonylethyl]-1,3-dioxo-2,3-dihydro-1H-isoindol-4-yl}undecanamide] | ≤ 70 | ≥ 60 | ≥ 60 | 
CCOc1cc([C@@H](CS(C)(=O)=O)N2C(=O)c3cccc(NCCCCCCCCCNCc4ccc(OCc5scc6c5CN(C5CCC(=O)NC5=O)C6=O)cc4)c3C2=O)ccc1OC (stereo partly drawn) [Compound A44, 4-[(9-{[(4-{[5-(2,6-Dioxopiperidin-3-yl)-4-oxo-4H,5H,6H-thieno[3,4-c]pyrrol-1-yl]methoxy}phenyl)methyl]amino}nonyl)amino]-2-[(1S)-1-(3-ethoxy-4-methoxyphenyl)-2-methanesulfonylethyl]-2,3-dihydro-1H-isoindole-1,3-dione] | ≤ 70 | ≥ 60 | ≥ 60 | 
O=C1CCC(Nc2cccc(NC(=O)CN3CCN(CCCCOc4cc(C(=O)Nc5c(Cl)cncc5Cl)ccc4OC(F)F)CC3)c2)C(=O)N1 (stereo not shown) [Compound B25, N-(3,5-Dichloropyridin-4-yl)-4-(difluoromethoxy)-3-(4-(4-(2-((3-((2,6-dioxopiperidin-3-yl)amino)phenyl)amino)-2-oxoethyl)piperazin-1-yl)butoxy)benzamide] | ≤ 70 | ≥ 60 | ≥ 60 | 
CCOc1cc([C@@H](CS(C)(=O)=O)N2C(=O)c3cccc(NC(C)=O)c3C2=O)ccc1OC [apremilast] |  |  |  | did not degradate the PDE4D

More lines, main results first:

Dmax [2] [%] | SMILES | inhibition at 0.1 µM [1] [%] | inhibition at 1 µM [1] [%] | PDE4D degradation (in words) [3]
≤ 70 | O=C1CCC(N2Cc3c(cc(F)cc3C3CCN(CCCCCCCOc4cc(C(=O)Nc5c(Cl)cncc5Cl)ccc4OC(F)F)CC3)C2=O)C(=O)N1 (stereo not shown) [Compound B1, N-(3,5-Dichloropyridin-4-yl)-4-(difluoromethoxy)-3-((7-(4-(2-(2,6-dioxopiperidin-3-yl)-6-fluoro-1-oxoisoindolin-4-yl)piperidin-1-yl)heptyl)oxy)benzamide] | < 20 | < 20 | 
≤ 70 | O=C1CCC(N2Cc3c(NCCCOCCOCCOCCOc4ccc(C(=O)Nc5c(Cl)cncc5Cl)cc4OCC4CC4)cccc3C2=O)C(=O)N1 (stereo not shown) [Compound B9, 3-(Cyclopropylmethoxy)-N-(3,5-dichloropyridin-4-yl)-4-(2-(2-(2-(3-((2-(2,6-dioxopiperidin-3-yl)-1-oxoisoindolin-4-yl)amino)propoxy)ethoxy)ethoxy)ethoxy)benzamide] | ≥ 60 | ≥ 60 | 
≤ 70 | O=C1CCC(N2Cc3c(cc(F)cc3C3CCN(CCCCCCCOc4ccc(C(=O)Nc5c(Cl)cncc5Cl)cc4OCC4CC4)CC3)C2=O)C(=O)N1 (stereo not shown) [Compound B10, 3-(Cyclopropylmethoxy)-N-(3,5-dichloropyridin-4-yl)-4-((7-(4-(2-(2,6-dioxopiperidin-3-yl)-6-fluoro-1-oxoisoindolin-4-yl)piperidin-1-yl)heptyl)oxy)benzamide] | 20 to 40 | ≥ 60 | 
≤ 70 | O=C1CCC(N2Cc3c(cc(F)cc3C3CCN(CCCOc4cc(C(=O)Nc5c(Cl)cncc5Cl)ccc4OC(F)F)CC3)C2=O)C(=O)N1 (stereo not shown) [Compound B11, N-(3,5-Dichloropyridin-4-yl)-4-(difluoromethoxy)-3-(3-(4-(2-(2,6-dioxopiperidin-3-yl)-6-fluoro-1-oxoisoindolin-4-yl)piperidin-1-yl)propoxy)benzamide] | ≥ 60 | ≥ 60 | 
≤ 70 | O=C1CCC(N2C(=O)c3cccc(N4CCC(CCCCCCCOc5cc(C(=O)Nc6c(Cl)cncc6Cl)ccc5OC(F)F)CC4)c3C2=O)C(=O)N1 (stereo not shown) [Compound B14, N-(3,5-Dichloropyridin-4-yl)-4-(difluoromethoxy)-3-((7-(1-(2-(2,6-dioxo-piperidin-3-yl)-1,3-dioxoisoindolin-4-yl)piperidin-4-yl)heptyl)oxy)benzamide] | ≥ 60 | ≥ 60 | 
≤ 70 | O=C1CCC(N2Cc3cc(C4CCN(CCOc5cc(C(=O)Nc6c(Cl)cncc6Cl)ccc5OC(F)F)CC4)c(F)cc3C2=O)C(=O)N1 (stereo not shown) [Compound B15, N-(3,5-Dichloropyridin-4-yl)-4-(difluoromethoxy)-3-(2-{4-[2-(2,6-dioxo-piperidin-3-yl)-6-fluoro-1-oxo-2,3-dihydro-1H-isoindol-5-yl]piperidin-1-yl}ethoxy)benzamide] | ≥ 60 | ≥ 60 | 
≤ 70 | O=C1CCC(Nc2cccc(NC(=O)CN3CCN(CCOc4cc(C(=O)Nc5c(Cl)cncc5Cl)ccc4OC(F)F)CC3)c2)C(=O)N1 (stereo not shown) [Compound B24, N-(3,5-Dichloropyridin-4-yl)-4-(difluoromethoxy)-3-(2-(4-(2-((3-((2,6-dioxopiperidin-3-yl)amino)phenyl)amino)-2-oxoethyl)piperazin-1-yl)ethoxy)benzamide] | ≥ 60 | ≥ 60 | 
